Reference: ChEMBL document CHEMBL3991601, “The target landscape of clinical kinase drugs” (Science, 2017)
Calls of active or inactive are those of the source.

Experiments:
[1] = molecular target: Mitogen-activated protein kinase kinase kinase kinase 1 (Homo sapiens, UniProt Q92918)
[2] = molecular target: T1, Serine/threonine-protein kinase Nek3 (Homo sapiens, UniProt P51956)
T1 sequence (P51956 whole entry): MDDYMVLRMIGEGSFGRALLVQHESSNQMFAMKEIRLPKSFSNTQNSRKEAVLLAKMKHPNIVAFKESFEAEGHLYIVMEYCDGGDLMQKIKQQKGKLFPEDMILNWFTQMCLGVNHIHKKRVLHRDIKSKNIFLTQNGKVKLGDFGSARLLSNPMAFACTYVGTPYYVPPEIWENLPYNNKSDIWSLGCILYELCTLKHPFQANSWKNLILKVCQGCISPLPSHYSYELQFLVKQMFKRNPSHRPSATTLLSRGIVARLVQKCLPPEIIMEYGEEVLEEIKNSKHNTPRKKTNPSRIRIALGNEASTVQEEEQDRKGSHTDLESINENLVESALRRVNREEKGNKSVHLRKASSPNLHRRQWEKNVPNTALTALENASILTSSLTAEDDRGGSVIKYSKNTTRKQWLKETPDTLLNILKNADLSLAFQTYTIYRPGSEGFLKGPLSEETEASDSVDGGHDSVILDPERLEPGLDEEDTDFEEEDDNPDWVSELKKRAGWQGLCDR

[3] = molecular target: U5 small nuclear ribonucleoprotein 200 kDa helicase (Homo sapiens, UniProt O75643)
[4] = molecular target: Insulin-like growth factor 1 receptor (Homo sapiens, UniProt P08069)
[5] = molecular target: T2, Rab-like protein 3 (Homo sapiens, UniProt Q5HYI8)
T2 sequence (Q5HYI8 whole entry): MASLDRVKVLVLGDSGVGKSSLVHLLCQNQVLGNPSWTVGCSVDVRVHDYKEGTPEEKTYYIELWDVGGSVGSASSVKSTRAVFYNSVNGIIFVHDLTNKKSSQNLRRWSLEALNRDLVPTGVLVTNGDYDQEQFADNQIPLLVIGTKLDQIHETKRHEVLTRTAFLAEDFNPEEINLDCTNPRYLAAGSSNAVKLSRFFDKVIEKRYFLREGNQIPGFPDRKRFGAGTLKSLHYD

[6] = molecular target: T3, Serine/threonine-protein kinase NLK (Homo sapiens, UniProt Q9UBE8)
T3 sequence (Q9UBE8 whole entry): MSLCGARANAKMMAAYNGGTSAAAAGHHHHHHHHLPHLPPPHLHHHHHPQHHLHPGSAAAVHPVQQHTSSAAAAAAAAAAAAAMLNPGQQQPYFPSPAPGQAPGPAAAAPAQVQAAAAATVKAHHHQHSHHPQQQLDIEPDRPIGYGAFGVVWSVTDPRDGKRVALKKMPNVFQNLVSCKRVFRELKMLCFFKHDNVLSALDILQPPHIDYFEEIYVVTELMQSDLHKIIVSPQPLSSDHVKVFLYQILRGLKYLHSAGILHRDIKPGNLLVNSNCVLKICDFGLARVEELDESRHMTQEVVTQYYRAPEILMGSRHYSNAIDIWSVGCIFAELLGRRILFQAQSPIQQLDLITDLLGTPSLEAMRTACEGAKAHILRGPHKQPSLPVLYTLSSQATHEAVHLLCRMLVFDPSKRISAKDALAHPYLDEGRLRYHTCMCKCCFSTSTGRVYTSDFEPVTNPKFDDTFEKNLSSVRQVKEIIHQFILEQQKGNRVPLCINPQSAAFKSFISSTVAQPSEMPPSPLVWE

[7] = molecular target: RAC-gamma serine/threonine-protein kinase (Homo sapiens, UniProt Q9Y243)
[8] = molecular target: T4, Breakpoint cluster region protein (Homo sapiens, UniProt P11274)
T4 sequence (P11274 whole entry): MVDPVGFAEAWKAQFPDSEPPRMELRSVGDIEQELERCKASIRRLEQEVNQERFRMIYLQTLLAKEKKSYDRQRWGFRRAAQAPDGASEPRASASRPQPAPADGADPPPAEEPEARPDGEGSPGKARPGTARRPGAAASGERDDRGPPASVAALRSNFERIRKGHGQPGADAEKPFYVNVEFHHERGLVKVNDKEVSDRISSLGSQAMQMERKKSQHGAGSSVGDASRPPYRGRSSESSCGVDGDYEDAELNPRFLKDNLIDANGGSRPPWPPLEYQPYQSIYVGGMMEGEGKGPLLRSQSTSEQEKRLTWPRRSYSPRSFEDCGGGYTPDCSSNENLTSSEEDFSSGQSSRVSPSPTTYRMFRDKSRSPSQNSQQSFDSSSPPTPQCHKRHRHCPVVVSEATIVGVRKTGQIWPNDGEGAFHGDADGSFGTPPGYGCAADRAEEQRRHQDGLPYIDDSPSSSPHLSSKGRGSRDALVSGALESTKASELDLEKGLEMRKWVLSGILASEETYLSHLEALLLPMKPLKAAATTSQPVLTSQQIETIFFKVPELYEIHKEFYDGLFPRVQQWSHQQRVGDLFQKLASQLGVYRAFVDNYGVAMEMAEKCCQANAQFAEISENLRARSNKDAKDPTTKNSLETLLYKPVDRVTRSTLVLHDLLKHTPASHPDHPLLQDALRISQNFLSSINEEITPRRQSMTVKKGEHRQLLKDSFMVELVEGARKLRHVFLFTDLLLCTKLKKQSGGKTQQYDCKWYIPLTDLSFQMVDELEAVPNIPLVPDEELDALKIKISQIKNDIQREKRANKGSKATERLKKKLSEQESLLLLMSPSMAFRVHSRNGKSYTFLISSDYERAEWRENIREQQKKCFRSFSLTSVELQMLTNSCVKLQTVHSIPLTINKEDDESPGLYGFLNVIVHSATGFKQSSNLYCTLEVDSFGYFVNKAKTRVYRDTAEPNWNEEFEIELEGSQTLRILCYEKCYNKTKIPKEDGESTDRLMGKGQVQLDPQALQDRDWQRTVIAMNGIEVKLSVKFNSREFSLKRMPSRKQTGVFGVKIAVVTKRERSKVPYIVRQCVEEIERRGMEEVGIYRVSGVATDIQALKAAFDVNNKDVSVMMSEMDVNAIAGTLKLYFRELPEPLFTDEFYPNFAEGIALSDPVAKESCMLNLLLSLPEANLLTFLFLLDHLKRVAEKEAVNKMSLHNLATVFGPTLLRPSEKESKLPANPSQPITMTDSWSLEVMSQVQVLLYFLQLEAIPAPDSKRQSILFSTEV

Measured: Kd
Note: in the data inactive means no Kd found up to 30 µM.

Mitogen-activated protein kinase kinase kinase kinase 1, sequence (Q92918 whole entry): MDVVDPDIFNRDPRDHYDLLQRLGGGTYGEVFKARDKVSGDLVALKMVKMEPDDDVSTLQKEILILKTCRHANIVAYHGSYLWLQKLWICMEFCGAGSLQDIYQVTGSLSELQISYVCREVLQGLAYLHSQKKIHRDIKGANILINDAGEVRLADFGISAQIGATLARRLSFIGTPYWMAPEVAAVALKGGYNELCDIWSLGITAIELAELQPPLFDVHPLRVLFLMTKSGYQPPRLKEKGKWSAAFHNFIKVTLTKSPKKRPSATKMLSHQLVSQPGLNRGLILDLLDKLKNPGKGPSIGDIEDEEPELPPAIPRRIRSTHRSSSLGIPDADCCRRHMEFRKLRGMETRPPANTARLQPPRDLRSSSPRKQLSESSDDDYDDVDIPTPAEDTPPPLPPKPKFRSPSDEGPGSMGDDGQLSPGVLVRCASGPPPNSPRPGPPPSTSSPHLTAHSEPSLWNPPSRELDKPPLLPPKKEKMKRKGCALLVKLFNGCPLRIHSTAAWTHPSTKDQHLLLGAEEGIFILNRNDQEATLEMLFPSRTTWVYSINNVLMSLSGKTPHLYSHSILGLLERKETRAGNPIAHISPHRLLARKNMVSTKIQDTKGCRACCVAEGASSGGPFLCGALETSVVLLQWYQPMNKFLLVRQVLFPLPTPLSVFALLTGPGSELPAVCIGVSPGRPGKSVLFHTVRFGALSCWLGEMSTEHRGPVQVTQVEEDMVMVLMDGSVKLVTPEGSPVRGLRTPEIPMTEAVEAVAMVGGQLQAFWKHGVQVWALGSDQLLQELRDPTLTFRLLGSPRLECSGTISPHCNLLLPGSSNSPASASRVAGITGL
Insulin-like growth factor 1 receptor, sequence (P08069 31-736 limits assumed): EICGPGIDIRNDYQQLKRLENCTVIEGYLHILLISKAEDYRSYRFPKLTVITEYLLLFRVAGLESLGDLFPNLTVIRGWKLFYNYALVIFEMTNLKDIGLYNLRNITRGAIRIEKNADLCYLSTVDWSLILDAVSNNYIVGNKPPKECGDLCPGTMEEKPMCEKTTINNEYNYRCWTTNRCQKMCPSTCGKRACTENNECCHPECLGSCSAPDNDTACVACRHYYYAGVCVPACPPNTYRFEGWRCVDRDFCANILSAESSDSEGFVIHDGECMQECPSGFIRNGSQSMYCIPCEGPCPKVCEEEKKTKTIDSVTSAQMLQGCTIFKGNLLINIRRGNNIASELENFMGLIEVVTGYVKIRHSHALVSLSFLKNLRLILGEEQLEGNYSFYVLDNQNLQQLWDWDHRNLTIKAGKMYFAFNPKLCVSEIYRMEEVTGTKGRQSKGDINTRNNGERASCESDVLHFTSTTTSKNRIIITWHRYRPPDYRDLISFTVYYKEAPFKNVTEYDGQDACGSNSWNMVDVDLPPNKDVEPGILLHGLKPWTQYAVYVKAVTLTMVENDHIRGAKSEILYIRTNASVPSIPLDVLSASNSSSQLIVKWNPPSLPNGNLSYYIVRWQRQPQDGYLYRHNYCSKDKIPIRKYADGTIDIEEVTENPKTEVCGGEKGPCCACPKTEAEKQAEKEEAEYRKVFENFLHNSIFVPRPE
Insulin-like growth factor 1 receptor, sequence (P08069 741-1367 limits assumed): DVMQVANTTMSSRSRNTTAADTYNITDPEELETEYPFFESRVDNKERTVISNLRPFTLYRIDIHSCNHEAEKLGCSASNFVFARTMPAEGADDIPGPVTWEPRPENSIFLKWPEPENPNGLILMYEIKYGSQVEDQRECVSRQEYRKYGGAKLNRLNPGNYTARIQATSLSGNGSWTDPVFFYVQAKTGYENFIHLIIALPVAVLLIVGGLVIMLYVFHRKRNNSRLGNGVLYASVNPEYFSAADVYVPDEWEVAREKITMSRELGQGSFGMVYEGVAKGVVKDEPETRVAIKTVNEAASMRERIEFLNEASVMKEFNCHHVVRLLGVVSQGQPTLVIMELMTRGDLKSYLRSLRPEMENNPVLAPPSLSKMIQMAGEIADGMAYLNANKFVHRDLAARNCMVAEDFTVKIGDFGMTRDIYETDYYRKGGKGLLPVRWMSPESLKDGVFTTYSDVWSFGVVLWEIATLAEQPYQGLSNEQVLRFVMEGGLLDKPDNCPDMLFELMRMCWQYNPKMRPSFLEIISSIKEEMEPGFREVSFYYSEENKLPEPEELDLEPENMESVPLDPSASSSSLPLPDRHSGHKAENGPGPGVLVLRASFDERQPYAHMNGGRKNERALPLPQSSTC
U5 small nuclear ribonucleoprotein 200 kDa helicase, sequence (O75643 whole entry): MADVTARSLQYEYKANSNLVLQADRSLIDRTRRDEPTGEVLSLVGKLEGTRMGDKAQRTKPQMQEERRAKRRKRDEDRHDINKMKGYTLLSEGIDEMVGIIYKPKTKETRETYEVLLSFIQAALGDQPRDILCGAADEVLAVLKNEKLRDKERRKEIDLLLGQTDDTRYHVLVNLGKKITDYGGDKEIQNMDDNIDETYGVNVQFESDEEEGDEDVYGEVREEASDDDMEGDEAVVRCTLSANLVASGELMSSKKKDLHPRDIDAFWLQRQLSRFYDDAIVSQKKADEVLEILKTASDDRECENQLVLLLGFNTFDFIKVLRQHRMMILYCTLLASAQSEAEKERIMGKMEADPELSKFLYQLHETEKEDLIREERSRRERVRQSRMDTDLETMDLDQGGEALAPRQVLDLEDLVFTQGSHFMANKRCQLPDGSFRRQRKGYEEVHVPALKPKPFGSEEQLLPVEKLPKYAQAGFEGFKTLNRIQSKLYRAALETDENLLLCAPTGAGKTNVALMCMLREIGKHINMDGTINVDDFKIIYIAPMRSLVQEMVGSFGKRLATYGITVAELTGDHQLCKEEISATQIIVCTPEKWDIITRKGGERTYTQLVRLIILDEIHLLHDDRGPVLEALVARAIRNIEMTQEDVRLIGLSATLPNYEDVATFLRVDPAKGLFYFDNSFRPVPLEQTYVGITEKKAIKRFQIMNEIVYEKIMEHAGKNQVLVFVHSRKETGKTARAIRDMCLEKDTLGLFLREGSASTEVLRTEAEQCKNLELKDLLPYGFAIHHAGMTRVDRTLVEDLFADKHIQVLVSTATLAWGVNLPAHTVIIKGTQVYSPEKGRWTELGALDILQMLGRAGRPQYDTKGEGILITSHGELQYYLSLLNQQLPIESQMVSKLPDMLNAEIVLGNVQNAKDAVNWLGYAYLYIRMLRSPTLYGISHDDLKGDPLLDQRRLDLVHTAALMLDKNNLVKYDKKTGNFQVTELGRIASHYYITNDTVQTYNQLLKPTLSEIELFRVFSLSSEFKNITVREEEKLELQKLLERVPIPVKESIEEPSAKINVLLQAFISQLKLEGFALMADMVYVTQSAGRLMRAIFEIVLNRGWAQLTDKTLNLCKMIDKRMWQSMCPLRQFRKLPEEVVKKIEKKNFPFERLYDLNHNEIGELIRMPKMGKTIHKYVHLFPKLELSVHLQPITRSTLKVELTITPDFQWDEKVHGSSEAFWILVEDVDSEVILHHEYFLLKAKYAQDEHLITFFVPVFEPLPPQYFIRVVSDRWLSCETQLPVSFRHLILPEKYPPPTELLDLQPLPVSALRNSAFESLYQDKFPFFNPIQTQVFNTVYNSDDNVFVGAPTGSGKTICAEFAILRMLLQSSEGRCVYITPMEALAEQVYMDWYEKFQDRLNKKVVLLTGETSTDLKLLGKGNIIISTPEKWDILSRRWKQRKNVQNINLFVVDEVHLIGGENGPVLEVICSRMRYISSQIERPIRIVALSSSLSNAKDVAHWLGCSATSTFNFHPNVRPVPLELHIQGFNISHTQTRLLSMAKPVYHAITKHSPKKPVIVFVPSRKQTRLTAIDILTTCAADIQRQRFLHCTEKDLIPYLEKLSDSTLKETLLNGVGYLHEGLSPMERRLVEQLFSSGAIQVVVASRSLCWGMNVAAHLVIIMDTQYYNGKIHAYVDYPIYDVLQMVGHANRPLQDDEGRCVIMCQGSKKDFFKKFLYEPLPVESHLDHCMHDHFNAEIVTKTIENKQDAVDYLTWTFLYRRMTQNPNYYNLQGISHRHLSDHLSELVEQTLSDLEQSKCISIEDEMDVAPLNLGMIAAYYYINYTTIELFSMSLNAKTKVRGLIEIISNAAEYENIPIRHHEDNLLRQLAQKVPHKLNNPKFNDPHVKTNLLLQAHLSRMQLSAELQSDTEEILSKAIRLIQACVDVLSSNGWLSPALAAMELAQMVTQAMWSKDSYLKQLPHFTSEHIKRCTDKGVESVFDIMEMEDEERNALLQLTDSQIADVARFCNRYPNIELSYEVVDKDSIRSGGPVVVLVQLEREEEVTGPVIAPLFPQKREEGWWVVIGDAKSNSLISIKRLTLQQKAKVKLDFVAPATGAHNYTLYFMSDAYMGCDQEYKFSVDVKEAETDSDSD
RAC-gamma serine/threonine-protein kinase, sequence (Q9Y243 whole entry): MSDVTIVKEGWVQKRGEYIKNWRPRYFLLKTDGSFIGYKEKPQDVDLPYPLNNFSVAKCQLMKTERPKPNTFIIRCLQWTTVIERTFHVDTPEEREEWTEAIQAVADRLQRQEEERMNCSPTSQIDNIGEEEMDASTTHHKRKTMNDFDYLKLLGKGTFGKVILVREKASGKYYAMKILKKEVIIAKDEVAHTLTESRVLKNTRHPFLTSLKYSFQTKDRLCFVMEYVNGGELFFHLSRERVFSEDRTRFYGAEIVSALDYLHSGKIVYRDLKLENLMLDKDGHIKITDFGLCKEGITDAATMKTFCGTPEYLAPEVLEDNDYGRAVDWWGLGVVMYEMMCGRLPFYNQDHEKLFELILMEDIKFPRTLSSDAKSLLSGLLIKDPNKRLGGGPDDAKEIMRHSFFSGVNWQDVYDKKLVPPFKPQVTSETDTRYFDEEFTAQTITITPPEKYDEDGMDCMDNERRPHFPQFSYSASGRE

CNC(=O)c1cccc(-c2ccc3c(N4CCOC[C@@H]4C)nc(N4CCOC[C@@H]4C)nc3n2)c1 [VISTUSERTIB]
inactive: [1] > 30 µM | [2] > 30 µM | [3] > 30 µM | [4] > 30 µM | [5] > 30 µM | [6] > 30 µM | [7] > 30 µM | [8] > 30 µM

O=C(NC[C@H](O)CO)c1ccncc1Nc1ccc(I)cc1F [PIMASERTIB]
inactive: [1] > 30 µM | [2] > 30 µM | [3] > 30 µM | [4] > 30 µM | [5] > 30 µM | [6] > 30 µM | [7] > 30 µM | [8] > 30 µM

O=C(NOC[C@H](O)CO)c1ccc(F)c(F)c1Nc1ccc(I)cc1F [MIRDAMETINIB]
inactive: [1] > 30 µM | [2] > 30 µM | [3] > 30 µM | [4] > 30 µM | [5] > 30 µM | [6] > 30 µM | [7] > 30 µM | [8] > 30 µM

CC1(COc2ccc3c(c2)ncn3-c2ccc3cccc(N4CCC(N)CC4)c3n2)COC1 [CRENOLANIB]
inactive: [1] > 30 µM | [2] > 30 µM | [3] > 30 µM | [4] > 30 µM | [5] > 30 µM | [6] > 30 µM | [7] > 30 µM | [8] > 30 µM

COc1ccc2c(OCc3nnc4ccc(-c5ccccc5)nn34)ccnc2c1 [AMG-208]
inactive: [1] > 30 µM | [2] > 30 µM | [3] > 30 µM | [4] > 30 µM | [5] > 30 µM | [6] > 30 µM | [7] > 30 µM | [8] > 30 µM
